Data on 24 compounds can be found in patent US6875760B2 (Novo Nordisk A/S, priority 1999, dated 2005).

For the experiment, the target named is T1, cloned human glucagon receptor (Homo sapiens, UniProt P47871).
T1 construct: expressed in transfected cells; plasma membrane preparation
Nature of the experiment: Glucagon Binding Assay (II). To be noted: plasma membranes of BHK cells expressing the receptor; read-out: Glu Bd Assay (II) IC50.

T1 sequence (P47871 26-477): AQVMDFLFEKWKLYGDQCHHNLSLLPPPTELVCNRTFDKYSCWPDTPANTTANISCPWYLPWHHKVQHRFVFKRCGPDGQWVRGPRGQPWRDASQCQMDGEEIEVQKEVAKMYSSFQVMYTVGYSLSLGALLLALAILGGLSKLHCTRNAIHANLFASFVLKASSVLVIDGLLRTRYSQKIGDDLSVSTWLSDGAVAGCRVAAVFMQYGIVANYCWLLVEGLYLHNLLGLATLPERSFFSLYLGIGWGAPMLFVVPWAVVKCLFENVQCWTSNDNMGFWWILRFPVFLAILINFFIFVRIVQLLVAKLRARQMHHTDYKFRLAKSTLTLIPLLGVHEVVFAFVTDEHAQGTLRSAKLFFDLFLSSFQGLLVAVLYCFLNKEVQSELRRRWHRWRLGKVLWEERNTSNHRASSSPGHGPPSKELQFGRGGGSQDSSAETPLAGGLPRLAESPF

The IC50 is the concentration needed to halve the response being measured. As for `O=C(O)CCNC(=O)c1ccc(CN(Cc2cc(Cl)cc(Cl)c2)c2ccc(C3CCCCC3)cc2)cc1` [Example 582, 3-(4-{[(4-Cyclohexylphenyl)-(3,5-dichlorobenzyl)amino}methyl]benzoylamino)propionic acid], the IC50 turned out to be 0.108 µM. Under `O=C(O)CCNC(=O)c1ccc(CN(Cc2cccc(Cl)c2)c2ccc(C3CCCCC3)cc2)cc1` [Example 583] stands 0.205 µM; under `O=C(Nc1nn[nH]n1)c1ccc(CN(Cc2cccc(Br)c2)c2ccc(C3CCCCC3)cc2)cc1` [Example 584, 4-{[(3-Bromobenzyl)-(4-cyclohexylphenyl)amino]methyl}-N-(2H-tetrazol-5-yl)benzamide], 0.284 µM.

As to `O=C(Nc1nn[nH]n1)c1ccc(CN(Cc2cccc(Cl)c2)c2ccc(C3CCCCC3)cc2)cc1` [Example 585, 4-{[(3-Chlorobenzyl)-(4-cyclohexylphenyl)amino]methyl}-N-(2H-tetrazol-5-yl)benzamide], the IC50 came out at 0.322 µM. Under `CC(C)(C)[C@H]1CC[C@H](N(Cc2ccc(C(=O)NCCC(=O)O)cc2)C(=O)c2ccc(OC(F)(F)F)cc2)CC1` [Example 586, 3-(4-{[(trans-4-tert-Butylcyclohexyl)-(4-trifluoromethoxybenzoyl)amino]methyl}benzoylamino)propionic acid] stands 0.874 µM; under `CCCCOc1ccc(C(=O)NN(Cc2ccc(C(=O)NCCC(=O)O)cc2)C2Cc3ccccc3C2)cc1` [Example 587, 3-{4-[N′-(4-Butoxybenzoyl)-N-indan-2-ylhydrazinomethyl]benzoylamino}propionic acid], 0.692 µM; under `CC(C)(C)[C@H]1CC[C@@H](N(Cc2ccc(C(=O)NCCC(=O)O)cc2)NC(=O)c2cc(Cl)cc(Cl)c2)CC1` [Example 588, 3-{4-[N-(cis-4-tert-Butylcyclohexyl)-N′-(3,5-dichlorobenzoyl)hydrazinomethyl]benzoylamino}propionic acid], 0.075 µM. Turning to `CC(C)(C)[C@H]1CC[C@@H](N(Cc2ccc(C(=O)NCCC(=O)O)cc2)NC(=O)c2ccc(F)c(F)c2)CC1` [Example 589, 3-{4-[N-(cis-4-tert-Butylcyclohexyl)-N′-(3,4-difluorobenzoyl)hydrazinomethyl]benzoylamino}propionic acid], the IC50 is 0.541 µM. The figure for `CC(C)(C)[C@H]1CC[C@@H](N(Cc2ccc(C(=O)NCCC(=O)O)cc2)NC(=O)c2cccc(OC(F)(F)F)c2)CC1` [Example 590, 3-{4-[N-(cis-4-tert-Butylcyclohexyl)-N′-(3-trifluoromethoxybenzoyl)hydrazinomethyl]benzoylamino}propionic acid] is 0.224 µM. Consider `Cc1cc(C)c(Cc2ccc(C(=O)NN(Cc3ccc(C(=O)NCCC(=O)O)cc3)[C@H]3CC[C@@H](C(C)(C)C)CC3)o2)c(C)c1` [Example 591, 3-(4-{N-(cis-4-tert-Butylcyclohexyl)-N′-[5-(2,4,6-trimethylbenzyl)furan-2-carbonyl]hydrazinomethyl}benzoylamino)propionic acid], for which the IC50 came to 0.004 µM. With `Cc1cc(C)c(Cc2ccc(C(=O)NN(Cc3ccc(C(=O)NCCC(=O)O)cc3)c3ccc(C4CCCCC4)cc3)o2)c(C)c1` [Example 592, 3-(4-{N-(4-Cyclohexylphenyl)-N′-[5-(2,4,6-trimethylbenzyl)furan-2-carbonyl]hydrazinomethyl}benzoylamino)propionic acid], the IC50 turned out to be 0.016 µM. The figure for `O=C(Nc1nn[nH]n1)c1ccc(CN(C(=O)Nc2cc(Cl)cc(Cl)c2)c2ccc(C3=CCCCC3)cc2)cc1` [Example 593, 4-[1-(4-Cyclohex-1-enylphenyl)-3-(3,5-dichlorophenyl)ureidomethyl]-N-(2H-tetrazol-5-yl)benzamide] is 0.008 µM.

For `O=C(Nc1nn[nH]n1)c1ccc(CN(C(=O)Nc2ccc3[nH]ccc3c2)c2ccc(C3CCCCC3)cc2)cc1` [Example 594, 4-{1-(4-Cyclohexylphenyl)-3-(1H-indol-5-yl)ureidomethyl]-N-(2H-tetrazol-5-yl)benzamide], the IC50 is 0.354 µM. The figure for `O=C(Nc1nn[nH]n1)c1ccc(CN(C(=O)NCc2ccc(Cl)c(Cl)c2)c2ccc(C3CCCCC3)cc2)cc1` [Example 595, 4-[1-(4-Cyclohexylphenyl)-3-(3,4-dichlorobenzyl)ureidomethyl}-N-(2H-tetrazol-5-yl)benzamide] is 0.039 µM; for `C[C@H](NC(=O)N(Cc1ccc(C(=O)Nc2nn[nH]n2)cc1)c1ccc(C2CCCCC2)cc1)c1ccccc1` [Example 596, 4-[1-(4-Cyclohexylphenyl)-3-((1S)-1-phenylethyl)ureidomethyl]-N-(2H-tetrazol-5-yl)benzamide] it is 0.112 µM. The figure for `N#Cc1ccc(NC(=O)N(Cc2ccc(C(=O)Nc3nn[nH]n3)cc2)c2ccc(C3CCCCC3)cc2)cc1C(F)(F)F` [Example 597, 4-[1-(4-Cyclohexylphenyl)-3-(4-cyano-3-trifluoromethylphenyl)ureidomethyl]-N-(2H-tetrazol-5-yl)benzamide] is 0.007 µM; for `C[C@@H](NC(=O)N(Cc1ccc(C(=O)Nc2nn[nH]n2)cc1)c1ccc(C2CCCCC2)cc1)c1ccccc1` [Example 598, 4-[1-(4-Cyclohexylphenyl)-3-((1R)-1-phenylethyl)ureidomethyl]-N-(2H-tetrazol-5-yl)benzamide] it is 0.207 µM. The figure for `O=C(O)CCNC(=O)c1ccc(CN(C(=O)Nc2cc(Cl)cc(Cl)c2)c2ccc(C3=CCCCC3)cc2)cc1` [Example 605, 3-{4-[1-(4-Cyclohex-1-enylphenyl)-3-(3,5-dichlorophenyl)ureidomethyl]benzoylamino}propionic acid] is 0.015 µM. As to `O=C(O)CCNC(=O)c1ccc(CN(C(=O)NCc2ccc(Cl)c(Cl)c2)c2ccc(C3CCCCC3)cc2)cc1` [Example 606, 3-{4-[1-(4-Cyclohexylphenyl)-3-(3,4-dichlorobenzyl)ureidomethyl]benzoylamino}propionic acid], the IC50 was 0.098 µM. The figure for `O=C(O)CCNC(=O)c1ccc(CN(C(=O)Nc2ccc3[nH]ccc3c2)c2ccc(C3CCCCC3)cc2)cc1` [Example 607, 3-{4-[1-(4-Cyclohexylphenyl)-3-(1H-indol-5-yl)ureidomethyl]benzoylamino}propionic acid] is 1.85 µM. With `C[C@@H](NC(=O)N(Cc1ccc(C(=O)NCCC(=O)O)cc1)c1ccc(C2CCCCC2)cc1)c1ccccc1` [Example 608, 3-{4-[1-(4-Cyclohexylphenyl)-3-((1R)-1-phenylethyl)ureidomethyl]benzoylamino}propionic acid], the IC50 came out at 0.677 µM. Under `C[C@H](NC(=O)N(Cc1ccc(C(=O)NCCC(=O)O)cc1)c1ccc(C2CCCCC2)cc1)c1ccccc1` [Example 609, 3-{4-[1-(4-Cyclohexylphenyl)-3-((1S)-1-phenylethyl)ureidomethyl]benzoylamino}propionic acid] stands 0.726 µM; under `C[C@@H](NC(=O)N(Cc1ccc(C(=O)NCCC(=O)O)cc1)c1ccc(C2CCCCC2)cc1)c1ccc2ccccc2c1` [Example 610, 3-{4-[1-(4-Cyclohexylphenyl)-3-[(1R)-1-(2-naphthyl)ethyl]ureidomethyl]benzoylamino}propionic acid], 0.118 µM; under `CCOC(=O)C(C)(C)C1CCC(N(Cc2ccc(C(=O)NCCC(=O)O)cc2)C(=O)Nc2ccc(OC(F)(F)F)cc2)CC1` (stereo not drawn) [Example 611, 2-{4-[1-[4-(2-Carboxyethylcarbamoyl)benzyl]-3-(4-trifluoromethoxyphenyl)ureido]cyclohexyl}-2-methylpropionic acid ethyl ester], 0.437 µM.
